Earlier results as cited in US20100086592A1, “MODIFIED DOSAGE FORMS OF TACROLIMUS” (PANACEA BIOTEC LIMITED., priority 2007, published 2010).
Like-named read-outs stand apart in the source and are kept apart here.

Details: oral

- absolute bioavailability (adult heart transplantation patients (N=11)): 23±9%
- absolute bioavailability (adult liver transplant patients (N=17)): 22±6%
- absolute bioavailability (healthy volunteers (N=16)): 18±5%
SMILES: C=CC[C@@H]1/C=C(\C)C[C@H](C)C[C@H](OC)[C@H]2O[C@@](O)(C(=O)C(=O)N3CCCC[C@H]3C(=O)O[C@H](/C(C)=C/[C@@H]3CC[C@@H](O)[C@H](OC)C3)[C@H](C)[C@@H](O)CC1=O)[C@H](C)C[C@@H]2OC [tacrolimus, Tacrolimus]
